Source: patent publication US20050288360A1, “Nutraceutical compositions comprising epigallocatechin gallate and raspberry ketone” (priority 2002, published 2005)
Marks after values point to notes of the source that are not given here.

Assays:
[1] = tested on: C57BLKS/J db/db mice; test: 5-week body weight study in db/db mice; format: in vivo; conditions: for Body weight, Initial: baseline, male db/db mice, standard rodent food; for Body weight, Initial / Body weight, Week 2 / Body weight, Week 4: feed-ad-mix 1400 mg/kg BW/day each, group mean; for Body weight decrease, Week 2 / Body weight decrease, Week 4: decrease in comparison to control group, 1400 mg/kg BW/day each
Method: The efficacy of the combination of EGCG and RK as well as of both compounds alone on body weight and adiposity was tested in a 5-week study in C57BLKS/J db/db mice (n=8-9/group). This model of late type 2 diabetes with severe hyperglycemia and obesity is widely used to determine the efficacy of anti-diabetic and anti-obesity compounds. Male db/db mice were obtained from Jackson Laboratory (Bar Harbor, Me., USA). Adult mice aged 8 weeks were used in the experiment. Mice were housed individually in plastic cages with bedding and allowed free access to standard rodent food and tap water. The animal rooms were controlled for temperature (24° C.), humidity (55%), and light (12-h light-dark cycle). The animals were randomized into four groups. EGCG and RK were administered as feed-ad-mix. Corn cellulose (2% of diet) served as a carrier substance for EGCG and RK as well as a placebo when used alone. Group 1 received placebo, group 2 received EGCG at a dose of 1400 mg/kg BW/day, group 3 received RI<at a dose of 1400 mg/kg BW/day, and group 4 received the combination of EGCG and RK at a doses of 1400 and 1400 mg/kg BW/day, respectively. Body weight and food intake were determined over the course of the study. All data are expressed as means for animals in each diet group. There was no difference in food intake between the groups over the study period. The decrease in body weight in comparison to the control group caused by each treatment was calculated (data are shown in Table 4). The expected treatment effect of the combined therapy with EGCG and RK was calculated by the sum of the effects exerted by monotherapy with EGCG or RK. The synergistic factor (SF) is defined as the quotient of the observed effect and the expected effect. If SF>1, a synergistic effect was exerted by the combined treatment.

[2] = tested on: C57BL6/J mice fed a high fat, high sucrose diet; test: 4-week body weight study in diet-induced obese mice; format: in vivo; conditions: for Body weight compared to control mice (in words): 4 week study period; for Body weight compared to control mice (in words) / Body weight, Initial / Body weight, Week 2 / Body weight, Week 4: high fat high sucrose diet; for Body weight, Initial: baseline, male C57BL6/J mice; for Body weight, Initial / Body weight, Week 2 / Body weight, Week 4: feed-ad-mix 1400 mg/kg BW/day each, group mean; for Body weight decrease, Week 2 / Body weight decrease, Week 4: decrease in comparison to control group, 1400 mg/kg BW/day each
Method: The efficacy of the combination of EGCG and RK as well as of both compounds alone on body weight and adiposity was tested in a 4-week study in C57BL6/J mice fed a high fat, high sucrose diet (n=8-11/group). This model of diet-induced obesity and early type 2 diabetes is widely used to determine the efficacy of anti-obesity compounds. Male C57BL6/J mice were obtained from Jackson Laboratory (Bar Harbor, Me., USA). Adult mice aged […] were used in the experiment. Mice were housed individually in plastic cages with bedding and allowed free access to a high fat, high sucrose mouse diet (Kliba # 2154, Klibamuehle, Kaiseraugst, Switzerland) and tap water. The animal rooms were controlled for temperature (24° C.), humidity (55%), and light (12-h light-dark cycle). The animals were randomized into four groups. EGCG and RK were administered as feed-ad-mix. Corn cellulose (2% of diet) served as a carrier substance for EGCG and RK as well as a placebo when used alone. Group 1 received placebo, group 2 received EGCG at a dose of 1400 mg/kg body weight (BW)/day, group 3 received RK at a dose of 1400 mg/kg BW/day, and group 4 received the combination of EGCG and RK at a doses of 1400 and 1400 mg/kg BW/day, respectively. Body weight and food intake were determined over the course of the study. All data are expressed as means for animals in each diet group. There was no difference in food intake between the groups over the study period. […] The decrease in body weight in comparison to the control group caused by each treatment was calculated (data are shown in Table 2). The expected treatment effect of the combined therapy with EGCG and RK was calculated by the sum of the effects exerted by monotherapy with EGCG or RK. The synergistic factor (SF) is defined as the quotient of the observed effect and the expected effect. If SF>1, a synergistic effect was exerted by the combined treatment.

O=C(O[C@@H]1Cc2c(O)cc(O)cc2O[C@@H]1c1cc(O)c(O)c(O)c1)c1cc(O)c(O)c(O)c1 [EGCG, epigallocatechin gallate]
Body weight, Initial [1]: 32.2 g
Body weight compared to untreated control (in words), after four weeks of treatment ([1]; db/db mice): neither EGCG nor RK caused a significant decrease in body weight
Body weight compared to control mice (in words), week 2 ([1]; db/db mice, week 2): significant decrease in body weight
Body weight decrease, Week 2 ([1]; week 2): 3.0 g
Body weight decrease, Week 4 [1]: 0.8 g
Body weight, Week 2 ([1]; week 2, db/db mice): 35.7* g
Body weight, Week 4 ([1]; db/db mice): 37.7 g
Body weight compared to control mice (in words) [2]: significant decrease in body weight
Body weight, Initial [2]: 11.4 g
Body weight decrease, Week 2 [2]: 2.7 g
Body weight decrease, Week 4 [2]: 2.2 g
Body weight, Week 2 [2]: 17.7* g
Body weight, Week 4 [2]: 21.4* g

CC(=O)CCc1ccc(O)cc1 [RK, 4-(4-hydroxyphenyl)-2-butanone]
Body weight, Initial [1]: 32.5 g
Body weight compared to untreated control (in words), after four weeks of treatment ([1]; db/db mice): neither EGCG nor RK caused a significant decrease in body weight
Body weight compared to control (in words), during the study period ([1]; db/db mice, whole study period): did not significantly decrease body weight
Body weight decrease, Week 2 ([1]; week 2): 0.3 g
Body weight decrease, Week 4 [1]: 0.4 g
Body weight, Week 2 ([1]; week 2, db/db mice): 38.4 g
Body weight, Week 4 ([1]; db/db mice): 38.0 g
Body weight compared to control mice (in words) [2]: significant decrease in body weight
Body weight, Initial [2]: 11.5 g
Body weight decrease, Week 2 [2]: 1.6 g
Body weight decrease, Week 4 [2]: 1.5 g
Body weight, Week 2 [2]: 19.0* g
Body weight, Week 4 [2]: 22.1* g
